Test results: publication PMC11872507, “Lasso peptides sviceucin and siamycin I exhibit anti-virulence activity and restore vancomycin effectiveness in vancomycin-resistant pathogens” (iScience, 2025)
In brackets after ≈: the same amount, converted by molar mass.

Columns and labels:
SiaE = assay: Vancomycin MIC, spontaneous mutants; assay type: cell-based; conditions: Enterococcus faecalis; vancomycin alone; frameshift in ccpA
Protocol: (§1) The MIC of vancomycin was determined by the microdilution method described in the guidelines of the European Committee on Antimicrobial Susceptibility Testing (EUCAST 2024, v14.0 Breakpoint Tables).[58] For enterococci, GM17 medium was used instead of CAMH medium since enterococci cannot degrade starch, the main carbohydrate of MH medium. 2-fold serial dilutions of the tested antibiotic were performed to obtain concentrations ranging from 0.5 to 512 μg/mL. LP were then added to the wells at the desired concentration. The medium was inoculated with a final inoculum of 5 × 10^5 CFU/mL. The MIC is the lowest concentration that prevents visible in vitro growth.
(§2) Resistant clones to sviceucin were selected by plating bacteria on GM17 agar medium supplemented with vancomycin at 32 μg/mL and sviceucin at 10 μM. Growth and MIC of vancomycin and sviceucin of the resistant clones were tested. The selection for siamycin I resistance was done by performing serial passages of bacteria in GM17 medium supplemented with vancomycin 10 μg/mL and increasing concentrations of siamycin I from 0.5 to 5 μM. Single nucleotide polymorphism (SNPs) analysis was performed on the sequenced gDNA of each selected resistant mutant.

Svic2 = assay: Vancomycin MIC, spontaneous mutants; assay type: cell-based; conditions: Enterococcus faecalis; vancomycin alone; nonsense mutation in atpA
Protocol: as §1, §2

Svic4 = assay: Vancomycin MIC, spontaneous mutants; assay type: cell-based; conditions: Enterococcus faecalis; vancomycin alone; atpD RBS modification
Protocol: as §1, §2

Svic3 = assay: Vancomycin MIC, spontaneous mutants; assay type: cell-based; conditions: Enterococcus faecalis; vancomycin alone; nonsense mutation in atpF
Protocol: as §1, §2

SiaD = assay: Vancomycin MIC, spontaneous mutants; assay type: cell-based; conditions: Enterococcus faecalis; vancomycin alone; CcpA A89P
Protocol: as §1, §2

SiaB = assay: Vancomycin MIC, spontaneous mutants; assay type: cell-based; conditions: Enterococcus faecalis; vancomycin alone; CcpA D121V
Protocol: as §1, §2

SiaC = assay: Vancomycin MIC, spontaneous mutants; assay type: cell-based; conditions: Enterococcus faecalis; vancomycin alone; CcpA A148V
Protocol: as §1, §2

E. faecalis V583 [1] = assay: Vancomycin MIC with nanoemulsions; assay type: cell-based, Enterococcus faecalis; conditions: with blank NEs
Protocol: The formulation of the nanoemulsions was based on the spontaneous nanoemulsification method previously described by Séguy et al.[41] and transposed to lasso peptides. The present nanoemulsions were developed from anhydrous mixtures composed of excipients already described in the European Pharmacopeia (World Health Organization, 2018) and already proven to be hemocompatible on human whole blood. Monodisperse nanoemulsions could be formulated at a drug payload of 400 μg/mL for siamycin I. At these concentrations, the drug added to the anhydrous mixture during the formulation process appeared to be completely dissolved. After the addition of the aqueous phase, a homogeneous colloidal suspension was observed. The nanoemulsions were characterized in terms of granulometric and physicochemical properties (Table S6). The hydrodynamic diameter, zeta potential, and PDI were not changed relative to the blank nanoemulsions, remaining lower than 0.25, indicating the presence of a monodispersed population.

Svic1 ΔvanB = assay: Vancomycin MIC, microdilution; assay type: cell-based; conditions: Enterococcus faecalis; vancomycin alone (control)
E. faecalis V583 [2] = assay: microbe, parasite or virus in culture; assay type: cell-based, Enterococcus faecalis
E. faecalis HIP11704 = assay: microbe, parasite or virus in culture; assay type: cell-based, Enterococcus faecalis; conditions: Enterococcus faecalis, HIP11704, read-out: Vancomycin MIC
Svic1 = assay: Vancomycin MIC, microdilution; assay type: cell-based, Enterococcus faecalis
Protocol: as §1, §2

SiaA = assay: Vancomycin MIC, microdilution; assay type: cell-based, Enterococcus faecalis
Protocol: as §1, §2

E. faecium 1 231 502 = assay: microbe, parasite or virus in culture; assay type: cell-based, Enterococcus faecium; conditions: Enterococcus faecium, 1231502, read-out: Vancomycin MIC
V583 ΔvanSB = assay: Vancomycin MIC, microdilution; assay type: cell-based; conditions: Enterococcus faecalis; vancomycin alone (control)
Protocol: The MIC of vancomycin was determined by the microdilution method described in the guidelines of the European Committee on Antimicrobial Susceptibility Testing (EUCAST 2024, v14.0 Breakpoint Tables).[58] […] 2-fold serial dilutions of the tested antibiotic were performed to obtain concentrations ranging from 0.5 to 512 μg/mL. LP were then added to the wells at the desired concentration. The medium was inoculated with a final inoculum of 5 × 10^5 CFU/mL. The MIC is the lowest concentration that prevents visible in vitro growth.

[3] = tested on: vanYB in E. faecalis V583; assay: vanYB expression by RT-qPCR; assay type: cell-based, Enterococcus faecalis; conditions: vancomycin 1 μg/mL alone
Protocol: (§3) For gelE gene expression measurements, bacteria were cultured in GM17 medium supplemented with the 1:1 water:methanol formulation or either sviceucin at 10 μM, or siamycin I at 1 μM. Cultures were incubated at 37°C until reaching OD600 of 0.5. For vanY gene expression measurements, bacteria were cultured in GM17 medium supplemented with either vancomycin at 1 μg/mL or sviceucin at 10 μM and vancomycin at 1 μg/mL at 37°C to induce the expression of van genes until reaching OD600 of 0.5. Bacteria were recovered by centrifugation at 4200 RCF for 2 min. Once the supernatant was discarded, the pellets were stored at −80°C. Pellets were resuspended in TE buffer or ML lysis buffer, depending on kit used, and transferred in Lysis Matrix B Tubes (MP Biomedicals, USA) before cell lysis with a FastPrep-24 5G (2 × 40 s at 6 m/s, 5 min on ice in-between cycles) (MP Biomedicals, USA). After bead-beating lysis, RNA extraction was performed using Direct-Zol RNA Miniprep kit (Zymo Research, USA) for gelE gene expression measurements or NucleoSpin^Ⓡ miRNA Miniprep kit (Macherey-Nagel, Germany) for vanY gene expression measurements, according to the manufacturers’ instructions. Retrotranscription was performed using QuantiTect Reverse transcription (QIAGEN, Germany). qPCR on cDNA was performed with GoTaq qPCR (Promega, USA). […] Data were analyzed with CFX Manager software (Biorad, USA).

vanYB in Svic1 = assay: vanYB expression by RT-qPCR; assay type: cell-based, Enterococcus faecalis; conditions: vancomycin 1 μg/mL alone
Protocol: as §3

E. faecalis merz96 = assay: microbe, parasite or virus in culture; assay type: cell-based, Enterococcus faecalis; conditions: Enterococcus faecalis, MERZ96, read-out: Vancomycin MIC
E. faecalis V583 ΔvanB = assay: microbe, parasite or virus in culture; assay type: cell-based, Enterococcus faecalis; conditions: Enterococcus faecalis, read-out: Vancomycin MIC
[4] = Enterococcus faecalis, read-out: Vancomycin MIC

In the case of `CN[C@H](CC(C)C)C(=O)N[C@H]1C(=O)N[C@@H](CC(N)=O)C(=O)N[C@H]2C(=O)N[C@H]3C(=O)N[C@H](C(=O)N[C@H](C(=O)O)c4cc(O)cc(O)c4-c4cc3ccc4O)[C@H](O)c3ccc(c(Cl)c3)Oc3cc2cc(c3O[C@@H]2O[C@H](CO)[C@@H](O)[C@H](O)[C@H]2O[C@H]2C[C@](C)(N)[C@H](O)[C@H](C)O2)Oc2ccc(cc2Cl)[C@H]1O` [Vancomycin], the MIC (SiaE) is reported as 32 µg/mL, the MIC (Svic2) is reported as 256 µg/mL (≈ 177 µM) and the MIC (Svic4) is reported as 256 µg/mL (≈ 177 µM). The MIC (Svic3) was 256 µg/mL (≈ 177 µM), the MIC (SiaD) was 64 µg/mL (≈ 44.2 µM) and the MIC (SiaB) was 64 µg/mL (≈ 44.2 µM). The MIC (SiaC) was 64 µg/mL (≈ 44.2 µM), the “Vancomycin MIC” value (E. faecalis V583 [1]) was 32 and the MIC (Svic1 ΔvanB) was 2 µg/mL (≈ 1.38 µM). For the same compound, the MIC (E. faecalis V583 [2]; Enterococcus faecalis, V583, read-out: Vancomycin MIC) was 32 µg/mL (≈ 22.1 µM), the “Vancomycin MIC” value (E. faecalis V583 [2]; vancomycin alone (control, 1:1 water:methanol formulation), GM17, 5 × 10^5 CFU/mL, VanB) was 32 µg/mL and the MIC (E. faecalis HIP11704) was 1020 µg/mL (≈ 707 µM). The MIC (Svic1; [4]) was 128 µg/mL (≈ 88.3 µM), the “fold increase of the MIC of vancomycin vs wild-type” value (Svic1; vancomycin alone) was 4 fold and the “Vancomycin MIC” value (Svic1; {}) was 128 µg/mL. The MIC (SiaA; [4]) was 128 µg/mL (≈ 88.3 µM), the “fold increase of the MIC of vancomycin vs wild-type” value (SiaA; vancomycin alone) was 4 fold and the “Vancomycin MIC” value (SiaA; {}) was 128 µg/mL. The MIC (E. faecium 1 231 502) was 128 µg/mL (≈ 88.3 µM), the MIC (V583 ΔvanSB) was 2 µg/mL (≈ 1.38 µM) and the “vanYB expression induced by vancomycin, in words” value [3] was “strongly induced”. For the same compound, the “vanYB expression induced by vancomycin, in words” value (vanYB in Svic1) was “strongly induced”, the MIC (E. faecalis merz96) was 32 µg/mL (≈ 22.1 µM) and the MIC (E. faecalis V583 ΔvanB) was 2 µg/mL (≈ 1.38 µM).
